Residues, ends and D or L forms follow the SMILES beside them.
system: enzyme (SP-Sepharose HP fraction) derived from Sphingobacterium sp. strain FERM BP-8124; assay: not given; format: biochemical; design: key to Produced peptide (mM): +: those peptides for which production was confirmed but which were unable to be quantified due to the absence of a standard; a trace amount; details: Table 15-3; carboxy component 100 mM, amine component 150 mM, 0.33 units enzyme, pH 9.0, 25° C., 1.5 hours
Method: Substrate specificity was examined for enzyme derived from Sphingobacterium sp. strain FERM BP-8124 (Depositary institution: National Institute for Advanced Industrial Science and Technology, International Patent Organism Depositary, Address of depositary institution: Central. 6, 1-1-1 Higashi, Tsukuba City, Ibaraki Prefecture, Japan, International deposit date: Jul. 22, 2002). 100 μl of 100 mM borate buffer (pH 9.0) containing the various carboxy components at a final concentration of 100 mM and the various amine components at a final concentration of 150 mM shown in Tables 15-1 to 15-4, the SP-Sepharose HP fraction enzyme purified in Example 22 (addition of 0.33 units in the reaction liquid) and 10 mM EDTA were allowed to react at 25° C. for 1.5 hours. […] In addition, hydrochlorides were used for all carboxy components.
Substrate specificity with respect to oligopeptide production was examined for enzyme derived from Sphingobacterium sp. strain FERM BP-8124 (Depositary institution: National Institute for Advanced Industrial Science and Technology,.International Patent Organism Depositary, Address of depositary institution: Chuo Dai-6, 1-1 Higashi 1-Chome, Tsukuba-shi, Ibaraki-ken, Japan, International deposit date: Jul. 22, 2002). A 100 μl aliquot of 100 mM borate buffer (pH 9.0) containing the various carboxy components at a final concentration of 100 mM and the various amine components at a final concentration of 150 mM shown in Table 16, the SP-Sepharose HP fraction enzyme purified in Example 22 (addition of 0.33 units in the reaction liquid) and 10 mM EDTA were allowed to react for 1.5 hours at 25° C. Furthermore, hydrochloride salts were used for all carboxy components.

Compound	Produced peptide	Produced peptide (mM)
CC[C@H](C)[C@H](N)C(=O)N[C@@H](Cc1ccccc1)C(=O)O [L-Ile-L-Phe] (H-Ile-Phe-OH)	1.5 mM	–
N[C@@H](CO)C(=O)N[C@@H](Cc1ccccc1)C(=O)O [L-Ser-L-Phe]	4.3 mM	–
CSCC[C@H](NC(=O)[C@@H](N)CO)C(=O)O [L-Ser-L-Met] (H-Ser-Met-OH)	7.6 mM	–
NCC(=O)N[C@@H](CO)C(=O)O [Gly-L-Ser] (H-Gly-Ser-OH)	53.8 mM	–
CSCC[C@H](NC(=O)[C@@H](N)CCCN=C(N)N)C(=O)O [L-Arg-L-Met] (H-Arg-Met-OH)	–	tr
CSCC[C@H](N)C(=O)N[C@@H](CO)C(=O)O [L-Met-L-Ser] (H-Met-Ser-OH)	25.3 mM	–
CC(C)[C@H](NC(=O)[C@@H](N)[C@@H](C)O)C(=O)O [L-Thr-L-Val] (H-Thr-Val-OH)	1.3 mM	–
CSCC[C@H](NC(=O)[C@@H](N)CCSC)C(=O)O [L-Met-L-Met] (H-Met-Met-OH)	28.4 mM	–

same assay, conditions: Table 15-4; amides or methylamine as components; 100 mM / 150 mM, 0.33 units enzyme, pH 9.0, 25° C., 1.5 hours

Compound	Produced peptide
C[C@H](N)C(=O)N[C@@H](C)C(N)=O [L-Ala-L-Ala-NH2] (H-Ala-Ala-NH2)	9.2 mM
C[C@H](N)C(=O)NCC(N)=O [L-Ala-Gly-NH2] (H-Ala-Gly-NH2)	15.1 mM
C[C@H](N)C(=O)N[C@@H](Cc1ccccc1)C(N)=O [L-Ala-L-Phe-NH2]	27.1 mM
CNC(=O)[C@@H](N)[C@@H](C)O [L-Thr-methylamine]	0.3 mM

same assay, conditions: Table 16, oligopeptide production; carboxy component 100 mM, amine component 150 mM, 0.33 units enzyme, pH 9.0, 25° C., 1.5 hours

Compound	Produced peptide
L-Ala-L-Ala-L-Ala	41.1 mM
L-Ala-L-Ala-L-Ala-L-Ala	30.1 mM
L-Ala-L-Phe-L-Ala	24.8 mM
L-Ala-L-His-L-Ala	58.0 mM
L-Ala-L-Phe-Gly	34.0 mM
L-Ala-L-Leu-L-Ala	40.7 mM
L-Ala-Gly-Gly	33.7 mM
L-Ala-Gly-L-Ala	35.1 mM

system: peptide-producing enzyme (Mono S fraction) from Empedobacter brevis strain FERM BP-8113; assay: Enzyme substrate specificity (1)-(10), (13), (14); format: biochemical; details: L-Ala-OMe 100 mM, L-amino acid amide 150 mM as amine component, pH 9.0, 25° C., 3 hours
Description: Ester specificity was examined in the case of using L-amino acid ester for the carboxy component. […] The amounts of L-Ala-L-Gln produced in this reaction are shown in Table 4 (HCl represents hydrochloride in Table 4). Peptide production was examined in the case of using L-alanine methyl ester for the carboxy component and using various L-amino acids for the amine component. […] (The “+” mark indicates those peptides for which production was confirmed but which were unable to be quantified due to the absence of a standard, while “tr” indicates a trace amount.) Peptide production was examined in the case of using various types of L-amino acid methyl esters for the carboxy component and using L-glutamine for the amine component. […] Peptide production was examined in the case of using various L-amino acid methyl esters for the carboxy component and various L-amino acids for the amine component. […] (The “tr” indicates a trace amount.) Furthermore, Tween-80 was added to the reaction system to a final concentration of 0.1% in the case of using L-Trp-OMe. (The “+” mark indicates those peptides for which production was confirmed but which were unable to be quantified due to the absence of a standard.) […] (The “tr” indicates a trace amount.) Peptide production was examined using various L-amino acid amides for the carboxy component, and various L-amino acids for the amine component. […] Peptide production was examined in the case of using various L-alanine methyl esters for the carboxy component and C-protected L-amino acids for the amine component. […] Peptide production was examined in the case of using various amino acid methyl esters for the carboxy component and methylamine for the amine component. […] Peptide production was examined in the case of using β-amino acid ester for the carboxy component or β-amino acid for the amine component. […] (The “tr” indicates a trace amount.) Oligopeptide production was examined in the case of using L-amino acid ester for the carboxy component and peptide for the amine component. […] Substrate specificity was additionally assessed using the same enzyme fraction as that used in Example 5. […] (A “+” mark indicates those for which production was confirmed but which were unable to be quantified due to the absence of a standard, while “tr” indicates a trace amount). Substrate specificity with respect to oligopeptide production was assessed using the same enzyme fraction as Example 26. […] (A “+” mark indicates those for which production was confirmed but which were unable to be quantified due to the absence of a standard, while “tr” indicates a trace amount). It should be noted that hydrochlorides were used for all of the carboxy components.

Compound	Produced peptide
C[C@H](N)C(=O)N[C@@H](C)C(N)=O [L-Ala-L-Ala-NH2] (H-Ala-Ala-NH2)	8.3 mM
C[C@H](N)C(=O)NCC(N)=O [L-Ala-Gly-NH2] (H-Ala-Gly-NH2)	7.4 mM
C[C@H](N)C(=O)N[C@@H](Cc1ccccc1)C(N)=O [L-Ala-L-Phe-NH2]	12.2 mM

same assay, conditions: L-amino acid ester 100 mM, amino acid or peptide amine component 150 mM, pH 9.0, 25° C., 3 hours

Compound	Produced peptide
L-Ala-L-Ala-L-Ala	57.5 mM
L-Ala-L-Ala-L-Ala-L-Ala	44.5 mM
L-Ala-L-Phe-L-Ala	49.7 mM
L-Ala-L-His-L-Ala	55.9 mM
L-Ala-L-Phe-Gly	43.7 mM
L-Ala-L-Leu-L-Ala	48.3 mM
L-Ala-Gly-Gly	41.7 mM
L-Ala-Gly-L-Ala	25.9 mM

same assay, conditions: L-amino acid methyl ester hydrochloride 100 mM, L-amino acid 150 mM, pH 9.0, 25° C., 3 hours

Compound	Produced peptide
CC[C@H](C)[C@H](N)C(=O)N[C@@H](Cc1ccccc1)C(=O)O [L-Ile-L-Phe] (H-Ile-Phe-OH)	5.2 mM
N[C@@H](CO)C(=O)N[C@@H](Cc1ccccc1)C(=O)O [L-Ser-L-Phe]	20.3 mM
CSCC[C@H](NC(=O)[C@@H](N)CO)C(=O)O [L-Ser-L-Met] (H-Ser-Met-OH)	12.5 mM
NCC(=O)N[C@@H](CO)C(=O)O [Gly-L-Ser] (H-Gly-Ser-OH)	44.2 mM
CSCC[C@H](NC(=O)[C@@H](N)CCCN=C(N)N)C(=O)O [L-Arg-L-Met] (H-Arg-Met-OH)	0.7 mM
CSCC[C@H](N)C(=O)N[C@@H](CO)C(=O)O [L-Met-L-Ser] (H-Met-Ser-OH)	12.8 mM
CC(C)[C@H](NC(=O)[C@@H](N)[C@@H](C)O)C(=O)O [L-Thr-L-Val] (H-Thr-Val-OH)	0.7 mM
CSCC[C@H](NC(=O)[C@@H](N)CCSC)C(=O)O [L-Met-L-Met] (H-Met-Met-OH)	25.0 mM

same assay, conditions: amino acid methyl ester 100 mM, methylamine 150 mM, pH 9.0, 25° C., 3 hours

Compound	Produced peptide
CNC(=O)[C@@H](N)[C@@H](C)O [L-Thr-methylamine]	0.2 mM

— patent US20040253665A1, “Novel peptide-producing enzyme, microbe producing the enzyme and method for dipeptide synthesis using them” (AJINOMOTO CO., INC., priority 2002, published 2004)
